For data set [1] the following is noted: in vivo.
Text: (§1) A. The radiopharmaceutical was sprayed deep into the nose through the nostril as the examinee laid on the scintigraphic table with the head placed in vertical position. B. The resultant radioactivity residing on the olfactory mucosa. C. The region of interest (ROI) placed just beneath the nose-brain barrier on the (cathode Ray Tube) so as to record the penetrating radioactivity. D. Pharyngeal radioactivity escaped from the olfactory pit.
(§2) The mixture was sprayed into the depth of the nose. […] In order to protect the nasal mucosa, vinyl tubing was attached to the end of the nozzle of a sprayer. As the head of an examinee was positioned vertically, so as to allow the droplets to fall onto the olfactory mucosa, the examiner sprayed the mixture deep into one of the nostrils; and
(§3) (2) Assessing the radioisotopic penetration across the NBB The radioisotopic spray side of the head of an examinee was placed against the detector collimator of a gamma camera for 10 minutes. Radioisotopic penetration was defined as the amount of radioactivity recorded in the regions of interest (ROIs) placed over the intracranial space adjoing the cribrijon lamine. The change of the recorded radioactivity in this ROI was analyzed along with that in a remote control brain area.
(§4) Test were performed to determine the penetration potential of radio-pharmaceuticals of ^99m Tc-HMPAO and ^99m Tc-DTPA.
For data set [2] the following is noted: agent that circulates in the blood; cited from earlier work.
For data set [3] the following is noted: cited from earlier work.
For data set [4] the following is noted: renogrammatic analysis; imaging and dynamic studies of cerebrospinal fluid flow; cited from earlier work.
Data set [5] can be described thus: Radioisotopic penetration across the nose-brain barrier (NBB) after intranasal spray, gamma camera ROI.
Text: as §1, §2, §3, §4

These results are taken from patent US6171575A, “Method of radioisotopic assessment of the integrity and function of the nose-brain barrier” (priority 1998, dated 2001).

Entries after “also recorded” stand apart in the source; their conditions may differ. Like-named read-outs stand apart in the source and are kept apart here.

As for `C/C(=N\[O-])[C@@H](C)[N-]CC(C)(C)C[N-][C@H](C)/C(C)=N/O.[O]=[99Tc+3]` (racemic) [^99m Tc-HMPAO], the “passage of the nose-brain barrier” value in data set [1] was “shown not to pass the nose-brain barrier”. Moreover, in data set [2], the “passage through the blood-brain barrier” value was “passes through the blood-brain barrier”.
`O=C([O-])CN(CCN(CC(=O)[O-])CC(=O)[O-])CCN(CC(=O)[O-])CC(=O)[O-].[99Tc+4]` [^99m Tc-DTPA, 99mTc-diethylenetriaminepenta-acetic acid]: the water solubility entry in data set [3] is listed as “water-soluble”. Besides, in data set [4], the extracellular spreading result is recorded as “spreads extracellularly”. Besides, the “radioisotopic penetration across the NBB (radioactivity in juxta-cribriform brain ROI)” value is on record as “the change was statistically insignificant; also recorded: increased but without any statistical significance” in data set [5] (healthy person, intranasal spray, 10 minutes gamma camera) and “significant increase in radioactivity in the juxta-cribriform lamional brain; also recorded: increased significantly” in data set [5] (person with anosmia, left nostril, 148 MBq per 0.2 ml puff (example preparation)). In data set [5] (overall conclusion, human beings, olfactory pathology and/or healthy control), the “passage of the nose-brain barrier” value was “shown to pass the nose-brain barrier”. In addition, in data set [5] (person with anosmia, left nostril), the “time after which radioactivity in the juxta-cribriform brain increased significantly” value came out at 5 min.
